The record followed here is patent US20220195384A1, “COMPOSITION FOR PROMOTING PRODUCTION OF STEM CELL-DERIVED EXOSOMES AND INCREASING STEMNESS” (BREXOGEN INC., priority 2019, published 2022).

The subject of the experiment is primary umbilical cord-derived mesenchymal stem cells. The experiment is described as follows: Stem cell stemness: colony formation (CFU-F, crystal violet) after pretreatment. The class given is cell-based. The settings on record: 10 ng/mL interferon-γ pretreatment one week. Here is the method:
In a culture medium [high glucose DMEM (Gibco, Cat no. 11995-065); 10% fetal bovine serum (HyClone), 1% MEM non-essential amino acids solution (100×) (Gibco, Cat no. 11140-050)] containing 20 nM of exendin-4, primary umbilical cord-derived mesenchymal stem cells (ATCC No. PCS-500-010; Lot No. 63822428) were cultured for one week.
In a culture medium [high glucose DMEM (Gibco, Cat no. 11995-065); 10% fetal bovine serum (HyClone), 1% MEM non-essential amino acids solution (100×) (Gibco, Cat no. 11140-050)] containing 10 nM of PMA, primary umbilical cord-derived mesenchymal stem cells (ATCC No. PCS-500-010; Lot No. 63822428) were cultured for one week.
In a culture medium [high glucose DMEM (Gibco, Cat no. 11995-065); 10% fetal bovine serum (HyClone), 1% MEM non-essential amino acids solution (100×) (Gibco, Cat no. 11140-050)] containing 10 ng/mL interferon-γ, primary umbilical cord-derived mesenchymal stem cells (ATCC No. PCS-500-010; Lot No. 63822428) were cultured for one week.
In a culture medium [high glucose DMEM (Gibco, Cat no. 11995-065); 10% fetal bovine serum (HyClone), 1% MEM non-essential amino acids solution (100×) (Gibco, Cat no. 11140-050)] containing 10 μM of tetrandrine, primary umbilical cord-derived mesenchymal stem cells (ATCC No. PCS-500-010; Lot No. 63822428) were cultured for one week.
In a culture medium [high glucose DMEM (Gibco, Cat no. 11995-065); 10% fetal bovine serum (HyClone), 1% MEM non-essential amino acids solution (100×) (Gibco, Cat no. 11140-050)] containing 10 μg/mL hyaluronic acid, primary umbilical cord-derived mesenchymal stem cells (ATCC No. PCS-500-010; Lot No. 63822428) were cultured for one week.
In a culture medium [high glucose DMEM (Gibco, Cat no. 11995-065); 10% fetal bovine serum (HyClone), 1% MEM non-essential amino acids solution (100×) (Gibco, Cat no. 11140-050)] containing 30 nM of substance P, primary umbilical cord-derived mesenchymal stem cells (ATCC No. PCS-500-010; Lot No. 63822428) were cultured for one week.
In a culture medium [high glucose DMEM (Gibco, Cat no. 11995-065); 10% fetal bovine serum (HyClone), 1% MEM non-essential amino acids solution (100×) (Gibco, Cat no. 11140-050)] containing 10 nM of resveratrol, primary umbilical cord-derived mesenchymal stem cells (ATCC No. PCS-500-010; Lot No. 63822428) were cultured for one week.
In a culture medium [high glucose DMEM (Gibco, Cat no. 11995-065); 10% fetal bovine serum (HyClone), 1% MEM non-essential amino acids solution (100×) (Gibco, Cat no. 11140-050)] containing 10 μM of lanifibranor, primary umbilical cord-derived mesenchymal stem cells (ATCC No. PCS-500-010; Lot No. 63822428) were cultured for one week.
Mesenchymal stem cells and the exendin-4-pretreated mesenchymal stem cells of the Example were each seeded at a density of 1,000 cells/dish into 100-mm cell culture dishes containing […] of a culture medium [high glucose DMEM (Gibco, Cat no. 11995-065), 10% fetal bovine serum (HyClone), 1% MEM non-essential amino acids solution (100×) (Gibco, Cat no. 11140-050)] per dish and cultured for 21 days. The cell-attached dishes were washed twice with PBS, followed by fixation with 95% methanol at room temperature for about 2 min. The fixed cells were washed three times with PBS and stained with 0.5% crystal violet [(sigma, C-3886, USA) […], methanol 100 ml] for 5 min. After water washing and drying at room temperature, colonies, each composed of 50 or more cells, were counted for comparison.
Mesenchymal stem cells and the PMA-pretreated mesenchymal stem cells of the Example were each seeded at a density of 1,000 cells/dish into 100-mm cell culture dishes containing […] of a culture medium [high glucose DMEM (Gibco, Cat no. 11995-065), 10% fetal bovine serum (HyClone), 1% MEM non-essential amino acids solution (100×) (Gibco, Cat no. 11140-050)] per dish and cultured for 21 days. The cell-attached dishes were washed twice with PBS, followed by fixation with 95% methanol at room temperature for about 2 min. […]

As for “interferon-γ [IFNγ MSC-Exo = exosomes of IFNγ-treated mesenchymal stem cells]”, the “colonies formed (each 50 or more cells)” value (1,000 cells/dish, 21 days, non-treated 28.6) is recorded as 136 colonies. Also, for the setting “vs non-treated”, the CFU-F increase entry was “about 476%”.
